In brackets after ≈: the same amount, converted by molar mass. Read-outs that look alike come from different tables or passages of the source. Marks after values point to notes of the source that are not given here.
Assays:
[1] = test system: RAW264.7 cells; assay: Macrophage viability in the same high content assay; conditions: for Intracellular activity Cytotoxicity TC50 / Intracellular RAW TC50: infected RAW264.7 macrophages; for Intracellular activity Cytotoxicity TC50: 72 h; for Intracellular RAW TC50: SAR tables 4-8; for selectivity index (TC50/IC50): macrophage TC50 / intracellular IC50
[2] = test system: HepG2 cells; assay: HepG2 cytotoxicity (CellTiter-Glo, 72 h); format: cell-based, human; conditions: for HepG2 cytotoxicity TC50 Galactose / HepG2 cytotoxicity TC50 Glucose: human, 72 h
Description: (§1) Cytotoxicity against HepG2 cells was measured after 72 h. Cells were seeded in 384-well plates at 1,800 cells per well. Compounds were added as a 10-point three-fold serial dilution after 24 h (final assay concentration of 1% DMSO). CellTiter-Glo® reagent (Promega) was added and relative luminescence units (RLU) measured. Data were normalized to the DMSO controls. Curves were fitted using the Levenberg–Marquardt algorithm; TC50 was calculated as the compound concentration required to reduce cell viability by 50%.
(§2) We further evaluated cytotoxicity using the HepG2 cell line cultured with either glucose or galactose in the medium (Table 2). HepG2 cells cultured with galactose rely on mitochondrial oxidative phosphorylation rather than glycolysis which increases their susceptibility to mitochondrial toxicants allowing us to identify compounds with mitochondrial toxicity ([Kamalian et al., 2015]).

[3] = HepG2 cytotoxicity (CellTiter-Glo, 72 h); format: cell-based, human; conditions: human
Description: as §1, §2

[4] = test system: M. tuberculosis; assay: High content assay of intracellular M. tuberculosis growth in infected RAW264.7 macrophages; format: cell-based, Mycobacterium tuberculosis H37Rv-LP
Description: Compounds were obtained in 384-well plates as 10 mM DMSO stock solutions and tested as described ([Manning et al., 2017]). Briefly, assay plates were prepared in clear bottom, black 384-well plates with 30 μl cRPMI and 0.6 μl compound in columns 3–22 (final concentration of 10 μM compound, 1% DMSO). […] INH and STA were also included in dose response on each plate. RAW264.7 cells were infected with M. tuberculosis DREAM8 as described ([Manning et al., 2017]) at an MOI of 1 for 24 h and extracellular bacteria removed by washing. Cells were recovered using Accumax, harvested, washed and resuspended in serum-free RPMI; 30 μl of infected cells were dispensed into each well at 3,300 cells/well. Plates were incubated for 72 h, 10 μl of 5X SYBR Green I was added and plates were imaged with an ImageXpress Micro High Content Screening System (Molecular Devices) using a ×4 objective and FITC and Texas Red channels. MetaXpress was used to analyze images. The integrated intensity of M. tuberculosis or macrophages was calculated for each well. Growth inhibition was calculated for each test well by normalizing to the average integrated intensity of the DMSO control wells. IC50 was calculated as the compound concentration required to reduce bacterial growth by 50%. TC50 was calculated as the compound concentration required to reduce macrophage viability by 50%.

[5] = test system: M. tuberculosis; assay: Minimum inhibitory concentration in liquid medium (axenic culture); format: cell-based, Mycobacterium tuberculosis; conditions: for IC50: read-out: Anti-tubercular activity in axenic culture IC50
[6] = test system: M. tuberculosis; set-up: method as in PMID 30466326; conditions: inhibitor of M. tuberculosis ref 20; cited from earlier work
[7] = test system: RAW264.7 cells
[8] = test system: non-replicating M. tuberculosis; set-up: method as in Christophe et al., 2009; conditions: ref Christophe et al., 2009; cited from earlier work
[9] = HepG2 cytotoxicity IC50 Galactose
[10] = HepG2 cytotoxicity IC50 Glucose
[11] = Mycobacterium tuberculosis, RAW264.7, 72 h, M. tuberculosis in RAW264.7 cells, MOI 1, 72 h, read-out: Intracellular activity Anti-tubercular activity IC50
[12] = Mycobacterium tuberculosis, 120 h, extracellular, 5 days, OD590
[13] = Mycobacterium tuberculosis, 120 h, extracellular, 5 days, OD590, read-out: Anti-tubercular activity in axenic culture IC90
[14] = Mycobacterium tuberculosis, axenic culture, SAR tables 4-8, read-out: Extracellular IC90
[15] = Mycobacterium tuberculosis, RAW264.7, read-out: Intracellular Mtb IC50, in RAW264.7 macrophages, SAR tables 4-8
[16] = Mycobacterium tuberculosis, RAW264.7, in RAW264.7 macrophages, SAR tables 4-8, read-out: Intracellular Mtb IC50

| SMILES | Intracellular activity Cytotoxicity TC50 [1] | Intracellular RAW TC50 [1] | HepG2 cytotoxicity TC50 Galactose [2] | HepG2 cytotoxicity TC50 Glucose [2] | IC50 at 72 h [3, 9] | IC50 at 72 h [3, 10] | IC50 [4, 11] | IC50 [5, 12] | IC90 [5, 13] | IC90 [5, 14] | IC50 [4, 16] | also measured |
| --- | --- | --- | --- | --- | --- | --- | --- | --- | --- | --- | --- | --- |
| O=C(Nc1ccc(Cl)c(Cl)c1)c1cccs1 [TPN-0073578] | 11 ± 2.2 ^d µM | 11 ± 2.2 ^c µM | 4.7 ± 0.54 ^c µM | 3.9 ± 1.1 ^c µM | 4.7 ± 0.5 µM | 3.9 ± 1.1 µM | 1.7 ± 0.85 µM | > 20 µM | > 20 µM | > 20 µM | – | IC50 ([4]; in RAW264.7 macrophages, SAR tables 4-8, listed as 27, read-out: Intracellular Mtb IC50): < 5 µM |
| Cc1cc(C)nc(NC(=N)Nc2ccc(Br)cc2)n1 [TPN-0073061] | 18 ± 4.3 ^d µM | 18 ± 4.3 ^d µM | 22 ± 3.1 ^c µM | 22 ± 4.0 ^c µM | 22 ± 3.1 µM | 212 ± 4 µM | 1.3 ± 0.15 µM | 6.3 ± 0.15 µM | 8.2 ± 0.1 µM | 8.2 ± 0.1 µM | – | selectivity index (TC50/IC50) [1]: 14; IC50 [4, 15]: 1.3 ± 0.1 µM |
| O=C(CSc1ccc(Cl)cc1)Nc1ccc(F)c(Cl)c1 [TPN-0006216] | >100 ^d µM | >100 ^b µM | 33 ± 4 ^b µM | 44 ± 2 ^b µM | 33 ± 4 µM | 44 ± 2 µM | 2.8 ± 0.78 µM | > 20 µM | > 20 µM | > 20 µM | 2.4 ± 0.5 µM | IC90 [6]: 6.9 µg/mL (≈ 20.9 µM); Intracellular RAW TC50 ([1]; listed as 12): > 100 µM; selectivity index (TC50/IC50) [1]: > 42; activity against intracellular M. tuberculosis [4]: good intracellular activity |
| OCc1cn(-c2ccc(F)cc2)nc1-c1cc(F)c(Cl)cc1Cl [TPN-0073565] | >100 ^d µM | >100 ^d µM | 43 ± 2.1 ^d µM | 46 ± 2.8 ^e µM | 43 ± 2.3 µM | 46 ± 2.8 µM | 7 ± 1.8 µM | 18.5 µM | > 20 µM | > 20 µM | 7 ± 1.8 µM | IC50 ([5]; extracellular, 5 days, OD590): > 20 µM |
| OCc1cn(-c2ccc(Cl)cc2)nc1-c1ccc(Cl)cc1 [TPN-0073562] | 16 ± 11 ^c µM | 16 ± 11 ^c µM | 31 ± 1.9 ^e µM | 31 ± 2.1 ^c µM | 31 ± 2.2 µM | 31 ± 2.1 µM | 2.9 ± 0.52 µM | 12 ± 0.5 µM | 19 ± 1.5 µM | 19 ± 1.5 µM | 2.9 ± 0.5 µM | – |
| Cc1ccc(SCC(=O)Nc2ccc(Br)c(C)c2)cc1 [TPN-0006207] | >100 ^b µM | >100 ^b µM | >100 ^b µM | >100 ^b µM | > 100 µM | > 100 µM | 6.3 ± 0.3 µM | > 20 µM | > 20 µM | > 20 µM | 6.3 ± 0.3 µM | activity against intracellular M. tuberculosis [4]: good intracellular activity |
| CC(C)c1ccc(OCC(=O)Nc2nccs2)cc1 [TPN-0006217] | 75 ± 16 ^d µM | – | 64 ± 1.5 ^b µM | 91 ± 3 ^b µM | 64 ± 1.5 µM | 91 ± 3 µM | 4.9 ± 2.1 µM | > 20 µM | > 20 µM | > 20 µM | – | – |
| COC(=O)c1c(NC(NC(=O)c2cccs2)C(=O)c2ccccc2)sc(C(C)=O)c1C (stereo not drawn) [TPN-0073588] | 67 ± 8.5 ^b µM | 67 ± 8.5 ^b µM | >100 ^c µM | >100 ^b µM | > 100 µM | 93 ± 5.5 µM | 6.5 ± 1.7 µM | > 20 µM | > 20 µM | > 20 µM | 6.5 ± 1.7 µM | selectivity index (SI) ([1]; HepG2 cells and/or macrophages, cell line not specified): > 10; selectivity (SI) for HepG2 ([2]; HepG2 cytotoxicity / intracellular IC50): 15 |
| O=C(Nc1ccc(Cl)cc1)Nc1ccc(Nc2ccccc2)cc1 [TPN-0073077] | – | 68 ± 23 ^b µM | – | – | > 100 µM | > 100 µM | – | – | – | > 20 µM | – | cytotoxicity to macrophages [7]: cytotoxic |
| O=C(COc1ccccc1)NC12CC3CC(CC(C3)C1)C2 [TPN-0006211] | 38 ± 6.0 ^b µM | 38 ± 6.0 ^b µM | 43 ± 1 ^b µM | 53 ± 1.5 ^b µM | 43 ± 1 µM | 53 ± 1.5 µM | 7.6 ± 3.5 µM | > 20 µM | > 20 µM | > 20 µM | 7.6 ± 3.5 µM | – |
| CCOc1ccc(NC(=S)Nc2ccc(C)c(C#N)c2)cc1 [TPN-0073063] | 47 ± 28 ^f µM | 47 ± 28 ^g µM | 34 ± 6.5 ^e µM | 40 ± 11 ^e µM | 35 ± 6.6 µM | 64 ± 40 µM | 0.25 ± 0.23 µM | 5 ± 1.5 µM | 9.5 ± 3.2 µM | 9.5 ± 3.2 µM | – | selectivity index (TC50/IC50) [1]: > 150; IC50 [4, 15]: 0.3 ± 0.2 µM |
| Cc1ccc(OCC(=O)N2CCCc3ccccc32)cc1 [TPN-0006208] | – | 86 ± 1.0 ^b µM | – | – | > 100 µM | > 100 µM | – | – | – | > 20 µM | 13 µM | activity against non-replicating M. tuberculosis [8]: had activity |
